Measured values taken from patent US8252748B2, “Peptide derived from neurotensin receptor 3 and use thereof in the treatment of psychiatric diseases” (Centre National de la Recherche Scientifique—CNRS, priority 2007, dated 2012).
No end group written: not given here.

How the values were obtained:
mouse (C57Black/J) = assay: Tail suspension test (TST); assay type: in vivo; conditions: IV 100 μl at 1 μM per animal; 30 min after injection
Description: The inventors conducted three types of behavioral experiments that are regarded as classical for determining the antidepressant activity of a substance (Nestler E. J., Gould E., Manji H., Buncan M., Duman R. S., Greshenfeld H. K., Hen, R. et al. “Preclinical models: status of basic research in depression” Biol Psychiatry. 15, 503-528 (2002) (20) and Cryan, J. & Holmes, A. “The ascent of mouse: advances in modeling human depression and anxiety” Nat Rev Drug Discov. 4, 775-790 (2005) (21)). The effects of the propeptide of the present invention were compared with those of the saline solution in which it is dissolved and with those of fluoxetine, one of the most-used antidepressants in clinical practice. The mouse strain used is C57Black/J strain. TREK-1^−/− mice were also measured in these various tests.
In the next two tests, the propeptide of the present invention was administered by the IV route at a rate of 100 μl at 1 μM per animal.
B. Tail Suspension Test (TST)
(see Cryan, J. & Holmes, A. (2005) (21) and Ripoll, N., David, D., Dailly, E., Hascoet, M. & Bourin, M. “Antidepressant-like effects in various mice strains in the tail suspension” Behav Brain Res. 143(2:193-200 (2003) (22).)
The experiment, 30 min after injection of the test substance in the mouse, consists of suspending the mouse by the tail by means of an adhesive ribbon and measuring the immobility time for 6 min.

C57BL6/J mice = assay: Hot plate test of sensitivity to pain; assay type: in vivo, mouse; conditions: IV 100 μl at 10^−6 M, 30 minutes after injection
Procedure: Sensitivity to pain was measured with two tests: the hot plate test and the “tail flick” test.
This test consists of measuring the time that a mouse licks its hind paws when it is put on a plate maintained at a given temperature. Two temperatures were used: 50 and 56° C.
The mice used were C57BL6/J mice. Each group was constituted of 10 mice.
The sensitivity to heat was then measured on the three groups of mice and the results obtained were compared.
The measurements were taken 30 minutes after injection.
The statistical difference was measured using the one-factor ANOVA test followed by the post-hoc test.

TREK-1 channel = target: T1, TREK-1 channel (Homo sapiens, UniProt O95069); assay: Whole-cell patch clamp of TREK-1 channel activity in transfected COS-7 cells; assay type: cell-based
T1 construct: expressed in transfected cells; host or cells: COS-7 cells (ATCC CRL-1651), DEAE-dextran transfection
T1 sequence (O95069 1-426): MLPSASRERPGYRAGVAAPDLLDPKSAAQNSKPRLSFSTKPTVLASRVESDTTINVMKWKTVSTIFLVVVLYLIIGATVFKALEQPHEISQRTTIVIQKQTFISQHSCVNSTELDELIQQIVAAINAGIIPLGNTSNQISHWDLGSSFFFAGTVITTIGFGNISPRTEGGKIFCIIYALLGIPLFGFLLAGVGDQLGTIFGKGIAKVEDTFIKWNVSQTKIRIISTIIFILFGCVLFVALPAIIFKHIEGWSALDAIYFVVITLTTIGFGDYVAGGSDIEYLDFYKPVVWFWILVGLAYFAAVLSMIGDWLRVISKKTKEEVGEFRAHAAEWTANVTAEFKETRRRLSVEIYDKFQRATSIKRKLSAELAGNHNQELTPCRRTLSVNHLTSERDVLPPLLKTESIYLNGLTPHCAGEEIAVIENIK
Procedure: All the experiments for measuring the effect of the propeptide were conducted on COS-7 cells (cell line derived from kidney fibroblasts of African green monkey Cercopithecus aethiops). These cells are sown at a density of 20 000 cells/dish with diameter of 35 mm, 24 hours before being transfected by the DEAE-dextran method with 1 μg of pIRES-EGFP-TREK-1 plasmid. Measurements of current were taken 48 to 72 hours after transfection.
Culture of the COS-7 cells. The COS-7 cells (ATCC reference: CRL-1651) are cultivated in DMEM medium (Gibco)/10% fetal calf serum (FCS, ICN), at 37° C. in the presence of 5% CO2.
Transfection using DEAE dextran. On day 1, the COS-7 cells are sown at 20 000 cells per 35-mm diameter dish containing 2 ml of culture medium. On day 2, the medium is removed and the cells are covered with 200 μl of PBS (Gibco) containing 1 μg of pIRES-EGFP-TREK-1 plasmid and 100 μg of DEAE-dextran (Sigma) then placed at 37° C./5% CO2. After incubation for 30 minutes, 2 ml of medium DMEM/10% NuSerum/80 μM chloroquin is added. After 3 hours, the medium is replaced with 2 ml of DMEM/10% FCS and the cells are incubated for 48 to 72 hours before being measured by electrophysiological methods.
Electrophysiological measurements: all the measurements are taken at room temperature, i.e. at 21-22° C. The cells that were transfected by the plasmid are detected from the fluorescence emitted by the EGFP after excitation at 480 nm.
The whole-cell patch clamp technique was used for measuring the activity of the TREK-1 channels. The equipment used is the RK 400 patch-clamp amplifier (Axon Instruments, U.S.A.). The patch pipettes with resistance of 1.3 to 8 MΩ are prepared from capillaries of borosilicate glass and are filled with a solution of 155 mM KCl, 3 mM MgCl2, 5 mM EGTA, 10 mM HEPES/KOH pH 7.2.
The cell culture medium is replaced with a solution of 150 mM NaCl, 5 mM KCl, 3 mM MgCl2, 1 mM CaCl2, 10 HEPES/NaOH pH 7.4 containing 10 mM tetraethyl ammonium chloride, 3 mM of 4-aminopyridin. The cells are perfused continuously with this solution. The rest potential of the membrane of the measured cell is fixed at −80 mV.
The variations in voltage are obtained either with a continuous ramp (from −100 to +50 mV) or by potential jumps of 10 mV (from −100 to +40 mV, 1.5 second per jump).
The data obtained were analyzed with the Pclamp software. The currents described in the appended FIG. 2B were obtained at 0 mV, the results expressed are the mean values±standard deviation. The IC50 value was obtained by plotting the experimental data with a sigmoidal function.
The activity of the channel is then measured by the patch-clamp technique in whole-cell configuration as described above.

## APLPRWSGPIGVSWGLR [propeptide, APLPRWSGPIGVSWGLR]
Mouse (C57Black/J)
  effect on immobility time: comparable to those produced by fluoxetine
C57BL6/J mice; 50° C.
  reaction time on hot plate: 21.1 ± 1.5 s
C57BL6/J mice; 56° C.
  reaction time on hot plate: 4.6 ± 0.9 s
TREK-1 channel; 10 μM arachidonic acid plus 100 μM of propeptide (130 pA/pF without propeptide)
  current density at 0 mV: 56 pA/pF
TREK-1 channel; COS-7, read-out: inhibition of channel activity measured at 0 mV
  inhibition at 100 µM: 25%
TREK-1 channel; activated by 10 μM arachidonic acid, measured at 0 mV, read-out: half-effect concentration (IC50) of inhibition of TREK-1 channel activity
  IC50: 70.7 nM
TREK-1 channel; baseline conditions, 100 μM of propeptide (control 31 pA/pF)
  current density at 0 mV: 23 pA/pF
TREK-1 channel; electrophysiology, FIG. 2
  activation of TREK-1 by arachidonic acid: blocked
